The source of these data is patent US20060287247A1, “Halogen-substituted thienyl compounds” (priority 2001, published 2006).

Assay [1] relates to S. aureus ATCC 29213. The experiment in a line: NCCLS broth microdilution MIC. The assay is classed as cell-based, Staphylococcus aureus. As to conditions: A = S. aureus ATCC 29213. As to the method: (§1) Compounds according to this invention were screened for their in vitro activities against selected species of bacteria and fungi. The minimal inhibition concentration (MIC) of these compounds was determined using the National Committee for Clinical Laboratory Standards (NCCLS) broth microdilution assay in microtiter plates, as set forth in: (1) the guidelines of the National Committee for Clinical Laboratory Standards (NCCLS) Document M7-A4 (NCCLS, 1997); (2) the guidelines of the National Committee for Clinical Laboratory Standards (NCCLS) Document M11-A4 (NCCLS, 1997); and (3) the guidelines and reference method of the National Committee for Clinical Laboratory Standards (NCCLS) Document M27-T (NCCLS, 1995). For antifungal essays, the method recommended in Murray, P R., 1995 Manual of Clinical Microbiology (ASM Press, Washington, D.C.), was employed. […]

Assay [2] deals with E. faecalis ATCC 29212. The assay can be described thus: NCCLS broth microdilution MIC. As to conditions: B = E. faecalis ATCC 29212. The assay is classed as cell-based, Enterococcus faecalis. As to the method: as §1
Assay [3] concerns B. cereus ATCC 11778. The assay can be described thus: NCCLS broth microdilution MIC. The assay is classed as cell-based, Bacillus cereus. The following applies: C = B. cereus ATCC 11778. Here is the method:
as §1

Assay [4] has as its system E. coli ATCC 25922. The assay can be described thus: NCCLS broth microdilution MIC. The assay is classed as cell-based. The following applies: D = E. coli ATCC 25922. As to the method:
as §1

The test system of assay [5] is C. albicans ATCC 38247. The assay can be described thus: NCCLS broth microdilution MIC (antifungal). The assay is classed as cell-based. As to conditions: E = C. albicans ATCC 38247. As to the method:
as §1

Assay [6] concerns S. pneumoniae ATCC 49619. The assay can be described thus: NCCLS broth microdilution MIC. The assay is classed as cell-based, Streptococcus pneumoniae. As to conditions: F = S. pneumoniae ATCC 49619. Here is the method:
as §1

Turning to `Cn1cc(NC(=O)c2cc(NC(=O)CCNC(=O)c3cc(NC(=O)c4cc(NC(=O)c5cc(Br)c(Br)s5)cn4C)cn3C)cn2C)cc1C(=O)NCCC(=O)NCCCCN` [Id-8], the “Minimum Inhibitory Concentration (MIC)” value in assay [1] is >32 µg/mL; in assay [2], “+++ (+++ = MIC ≦4)”; in assay [3] it was >32 µg/mL; in assay [4] it was >32 µg/mL; in assay [5], >32 µg/mL; in assay [6], “+++ (+++ = MIC ≦4)”.

For the molecule `Cn1cc(NC(=O)c2cc(NC(=O)CCNC(=O)c3cc(NC(=O)c4cc(NC(=O)c5cc(Br)c(Br)s5)cn4C)cn3C)cn2C)cc1C(=O)NCCC(=O)NCCCN` [Id-9], the “Minimum Inhibitory Concentration (MIC)” value was “+++ (+++ = MIC ≦4)” in assay [1]; “+++ (+++ = MIC ≦4)” in assay [2]; “+++ (+++ = MIC ≦4)” in assay [3]; >32 µg/mL in assay [4]; >32 µg/mL in assay [5]; “+++ (+++ = MIC ≦4)” in assay [6].

As to `CN(C)CCN(C)C(=O)CCNC(=O)c1cc(NC(=O)c2cc(NC(=O)CCNC(=O)c3cc(NC(=O)c4cc(NC(=O)c5cc(Br)c(Br)s5)cn4C)cn3C)cn2C)cn1C` [Id-10], the “Minimum Inhibitory Concentration (MIC)” value in assay [1] is >32 µg/mL; in assay [2], >32 µg/mL; in assay [3] it was >32 µg/mL; in assay [4], >32 µg/mL; in assay [5] it was >32 µg/mL; in assay [6], “+++ (+++ = MIC ≦4)”.

For the molecule `CCNCCNC(=O)CCNC(=O)c1cc(NC(=O)c2cc(NC(=O)CCNC(=O)c3cc(NC(=O)c4cc(NC(=O)c5cc(Br)c(Br)s5)cn4C)cn3C)cn2C)cn1C` [Id-12], the “Minimum Inhibitory Concentration (MIC)” value in assay [1] is “+++ (+++ = MIC ≦4)”; in assay [2], “+++ (+++ = MIC ≦4)”; in assay [3], “+++ (+++ = MIC ≦4)”; in assay [4], >32 µg/mL; in assay [5], >32 µg/mL; in assay [6] it was “+++ (+++ = MIC ≦4)”.

On to `Cn1cc(NC(=O)c2cc(NC(=O)CCNC(=O)c3cc(NC(=O)c4cc(NC(=O)c5cc(Br)c(Br)s5)cn4C)cn3C)cn2C)cc1C(=O)NCCC(=O)NCCCN1CCNCC1` [Id-13], for which the “Minimum Inhibitory Concentration (MIC)” value in assay [1], in assay [2], in assay [3], in assay [4], in assay [5] and in assay [6] was >32 µg/mL throughout.

`Cn1cc(NC(=O)c2cc(NC(=O)CCNC(=O)c3cc(NC(=O)c4cc(NC(=O)c5ccc(Br)s5)cn4C)cn3C)cn2C)cc1C(=O)NCCC(=O)NCC(C)(C)CN` [Id-20]: the “Minimum Inhibitory Concentration (MIC)” value in assay [1] was >32 µg/mL; in assay [2], >32 µg/mL; in assay [3], >32 µg/mL; in assay [4], >32 µg/mL; in assay [5], >32 µg/mL; in assay [6], “+++ (+++ = MIC ≦4)”.

Consider `Cn1cc(NC(=O)c2cc(NC(=O)CCNC(=O)c3cc(NC(=O)c4cc(NC(=O)c5ccc(Br)s5)cn4C)cn3C)cn2C)cc1C(=O)NCCC(=O)NCc1cccnc1` [Id-23], for which the “Minimum Inhibitory Concentration (MIC)” value in assay [1] is >32 µg/mL; in assay [2], “+++ (+++ = MIC ≦4)”; in assay [3], >32 µg/mL; in assay [4], >32 µg/mL; in assay [5], >32 µg/mL; in assay [6] it was “+++ (+++ = MIC ≦4)”.

As for `Cn1cc(NC(=O)c2cc(NC(=O)CCNC(=O)c3cc(NC(=O)c4cc(NC(=O)c5cc(Br)c(NCCCN)s5)cn4C)cn3C)cn2C)cc1C(=O)NCCC(=O)NCCCN` [Id-25], the “Minimum Inhibitory Concentration (MIC)” value in assay [1] was “+ (+ = MIC from 12 to 32, inclusive)”; in assay [2], “+ (+ = MIC from 12 to 32, inclusive)”; in assay [3] it was “+++ (+++ = MIC ≦4)”; in assay [4] it was >32 µg/mL; in assay [5] it was >32 µg/mL; in assay [6], “+++ (+++ = MIC ≦4)”.

Consider `CN(C)CCCNC(=O)CCNC(=O)c1cc(NC(=O)c2cc(NC(=O)CCNC(=O)c3cc(NC(=O)c4cc(NC(=O)c5sccc5Cl)cn4C)cn3C)cn2C)cn1C` [Id-27], for which the “Minimum Inhibitory Concentration (MIC)” value is “++ (++ = MIC between 4 and 12)” in assay [1]; >32 µg/mL in assay [2]; “+++ (+++ = MIC ≦4)” in assay [3]; >32 µg/mL in assay [4]; “+ (+ = MIC from 12 to 32, inclusive)” in assay [5]; “+++ (+++ = MIC ≦4)” in assay [6].

Take `CN(C)CCCNC(=O)CCNC(=O)c1cc(NC(=O)c2cc(NC(=O)CCNC(=O)c3cc(NC(=O)c4cc(NC(=O)c5sccc5F)cn4C)cn3C)cn2C)cn1C` [Id-30]: the “Minimum Inhibitory Concentration (MIC)” value in assay [1] was >32 µg/mL; in assay [2] it was >32 µg/mL; in assay [3], >32 µg/mL; in assay [4], >32 µg/mL; in assay [5] it was >32 µg/mL; in assay [6] it was “++ (++ = MIC between 4 and 12)”.

On to `CN(C)CCCNC(=O)c1cc(NC(=O)c2cc(NC(=O)c3cc(NC(=O)c4sccc4F)cn3C)cn2C)cn1C` [Ie-4], for which the “Minimum Inhibitory Concentration (MIC)” value in assay [1] is “++ (++ = MIC between 4 and 12)”; in assay [2], “++ (++ = MIC between 4 and 12)”; in assay [3], “+ (+ = MIC from 12 to 32, inclusive)”; in assay [4] it was >32 µg/mL; in assay [5] it was >32 µg/mL; in assay [6], “+++ (+++ = MIC ≦4)”.

`Cn1cc(NC(=O)c2cc(NC(=O)c3cc(NC(=O)c4sccc4F)cn3C)cn2C)cc1C(=O)NCCN1CCOCC1` [Ie-5]: the “Minimum Inhibitory Concentration (MIC)” value in assay [1] was “+++ (+++ = MIC ≦4)”; in assay [2], >32 µg/mL; in assay [3], “+++ (+++ = MIC ≦4)”; in assay [4] it was >32 µg/mL; in assay [5], >32 µg/mL; in assay [6], “+++ (+++ = MIC ≦4)”.

On to `Cn1cc(NC(=O)c2cc(NC(=O)c3cc(NC(=O)c4sccc4Cl)cn3C)cn2C)cc1C(=O)NCCN1CCOCC1` [Ie-6], for which the “Minimum Inhibitory Concentration (MIC)” value is “+++ (+++ = MIC ≦4)” in assay [1]; “+++ (+++ = MIC ≦4)” in assay [2]; “+++ (+++ = MIC ≦4)” in assay [3]; >32 µg/mL in assay [4]; >32 µg/mL in assay [5]; “+++ (+++ = MIC ≦4)” in assay [6].

For the molecule `Cc1csc(C(=O)Nc2cc(C(=O)Nc3cc(C(=O)Nc4cc(C(=O)NCCN5CCOCC5)n(C)c4)n(C)c3)n(C)c2)c1Cl` [Ie-11], the “Minimum Inhibitory Concentration (MIC)” value is “+++ (+++ = MIC ≦4)” in assay [1]; “+++ (+++ = MIC ≦4)” in assay [2]; “+++ (+++ = MIC ≦4)” in assay [3]; >32 µg/mL in assay [4]; >32 µg/mL in assay [5]; “+++ (+++ = MIC ≦4)” in assay [6].

In the case of `CN(C)CCCNC(=O)CCNC(=O)c1cc(NC(=O)c2cc(NC(=O)c3cc(NC(=O)c4nc(NC(=O)CCCNC(=O)c5cc(NC(=O)c6cc(NC(=O)c7cc(NC(=O)c8cc(Br)c(Br)s8)cn7C)cn6C)cn5C)cn4C)cn3C)cn2C)cn1C` [If-1], the “Minimum Inhibitory Concentration (MIC)” value in assay [1], in assay [2], in assay [3], in assay [4], in assay [5] and in assay [6] was >32 µg/mL throughout.

Consider `Cn1cc(NC(=O)c2cc(NC(=O)c3cc(NC(=O)c4ccc(Br)s4)cn3C)cn2C)cc1C(=O)NCCCC(=O)Nc1cn(C)c(C(=O)Nc2cc(C(=O)Nc3cc(C(=O)Nc4cc(C(=O)NCCC(=O)NCCCN5CCNCC5)n(C)c4)n(C)c3)n(C)c2)n1` [If-2], for which the “Minimum Inhibitory Concentration (MIC)” value in assay [1], in assay [2], in assay [3], in assay [4], in assay [5] and in assay [6] was >32 µg/mL each time.
